These results are taken from patent US20250215029A1 (Recludix Pharma, Inc., priority 2022, published 2025).

For assay [1], the target named is T1, Recombinant STAT3 protein (STAT3 (G127-I722)) (Homo sapiens, UniProt P40763).
T1 construct: Recombinant STAT3 protein (STAT3 (G127-I722))
Kind of assay: STAT3 Fluorescence Polarization (FP) Assay. It is filed as binding. The settings on record: STAT3 (G127-I722) 25 nM, probe 5-FAM-GpYLPQTV-NH2 2 nM, 45-minute incubation; read-out: STAT3 (FP assay IC50 class). The method in brief:
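Compounds in serial dilution receive a premix of STAT3 (G127-I722, 25 nM) and fluorescent phosphotyrosine peptide 5-FAM-GpYLPQTV-NH2 (2 nM) at pH 7.4. After 45 min at room temperature, FP is measured and IC50 derived by nonlinear regression.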
For orientation: In fluorescence polarisation assays a small probe gives low polarisation when free and higher when bound to something large.

The target of assay [2] is T2, Recombinant STAT6 protein (STAT6 (W123-T658)) (Homo sapiens, UniProt P42226).
T2 construct: Recombinant STAT6 protein (STAT6 (W123-T658))
T2 sequence (P42226 123-658): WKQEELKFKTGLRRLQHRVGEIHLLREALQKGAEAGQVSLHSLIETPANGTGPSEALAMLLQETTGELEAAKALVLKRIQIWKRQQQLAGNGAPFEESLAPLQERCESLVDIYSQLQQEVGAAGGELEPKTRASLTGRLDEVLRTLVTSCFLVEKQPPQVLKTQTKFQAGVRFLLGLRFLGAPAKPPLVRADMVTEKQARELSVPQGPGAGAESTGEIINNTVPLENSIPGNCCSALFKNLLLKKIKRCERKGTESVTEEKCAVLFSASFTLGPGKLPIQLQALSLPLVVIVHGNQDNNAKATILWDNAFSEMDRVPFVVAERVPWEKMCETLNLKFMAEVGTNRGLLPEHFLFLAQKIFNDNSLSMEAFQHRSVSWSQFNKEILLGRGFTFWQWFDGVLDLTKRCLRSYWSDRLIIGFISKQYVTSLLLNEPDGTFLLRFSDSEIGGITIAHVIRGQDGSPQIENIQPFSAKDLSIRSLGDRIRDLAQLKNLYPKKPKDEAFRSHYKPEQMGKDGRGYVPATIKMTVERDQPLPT
Kind of assay: STAT6 Fluorescence Polarization (FP) Assay. It is filed as binding. To be noted: STAT6 (W123-T658) 250 nM, probe 5-FAM-Ap[…]-NH2 2 nM, 45-minute incubation; read-out: STAT6 (FP assay IC50 class). The gist of the method:
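STAT6 (W123-T658) at 250 nM was mixed with 2 nM 5-FAM-labeled phosphotyrosine peptide probe in HEPES pH 7.4 buffer with NaCl, EDTA, Tween 20 and DTT, then added to serially diluted compounds at 1% DMSO final. Polarization was read after 45 min at room temperature; IC50 came from nonlinear regression of mP versus log concentration.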

T1 sequence (P40763 127-722): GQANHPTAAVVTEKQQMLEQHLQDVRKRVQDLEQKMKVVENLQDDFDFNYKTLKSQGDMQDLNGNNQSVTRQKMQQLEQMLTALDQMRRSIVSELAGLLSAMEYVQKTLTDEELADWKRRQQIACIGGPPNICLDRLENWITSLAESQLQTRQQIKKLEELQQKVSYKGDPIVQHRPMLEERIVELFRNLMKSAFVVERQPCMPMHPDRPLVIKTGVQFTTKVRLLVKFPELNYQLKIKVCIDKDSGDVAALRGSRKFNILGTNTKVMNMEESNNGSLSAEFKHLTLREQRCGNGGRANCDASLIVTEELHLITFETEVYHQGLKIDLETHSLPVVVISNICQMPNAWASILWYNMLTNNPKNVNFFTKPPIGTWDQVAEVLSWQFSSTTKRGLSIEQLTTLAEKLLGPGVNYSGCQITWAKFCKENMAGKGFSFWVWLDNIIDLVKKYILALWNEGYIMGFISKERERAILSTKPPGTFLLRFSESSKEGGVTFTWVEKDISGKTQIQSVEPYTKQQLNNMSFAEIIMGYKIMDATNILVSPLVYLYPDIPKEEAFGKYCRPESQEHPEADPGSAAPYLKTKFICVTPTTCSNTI

A word on the IC50: it is the concentration at which inhibition is half-maximal. `CC(C)n1cc(N(C)C(=O)[C@@H]2CC[C@@H]3CCCC[C@H](NC(=O)c4cc5cc(C(F)(F)P(=O)(O)O)ccc5s4)C(=O)N32)cn1` [Compound 793, (difluoro(2-(((3S,6S,10aS)-3-((1-isopropyl-1H-pyrazol-4-yl)(methyl)carbamoyl)-5-oxodecahydropyrrolo[1,2-a]azocin-6-yl)carbamoyl)benzo [b]thiophen-5-yl)methyl) phosphonic acid]: the results for the IC50 in assay [1] and in assay [2] were 1000 to 10000 nM and 3 to 30 µM, respectively.
Take `O=C(N[C@H]1CCCC[C@H]2CC[C@@H](C(=O)N3Cc4cn(C5CC5)nc4C3)N2C1=O)c1cc2cc(C(F)(F)P(=O)(O)O)ccc2s1` [Compound 794, ((2-(((3S,6S,10aS)-3-(2-cyclopropyl-2,4,5,6-tetrahydropyrrolo[3,4-c]pyrazole-5-carbonyl)-5-oxodecahydropyrrolo [1,2-a]azocin-6-yl)carbamoyl)benzo [b]thiophen-5-yl)difluoromethyl) phosphonic acid]: the figures for the IC50 in assay [1] and in assay [2] were 100 to 1000 nM and 3 to 30 µM, respectively.
The corresponding values for `CN(Cc1cc(=O)[nH]c2ccccc12)C(=O)[C@@H]1CC[C@@H]2CCCC[C@H](NC(=O)c3cc4cc(C(F)(F)P(=O)(O)O)ccc4s3)C(=O)N21` [Compound 795, (difluoro(2-(((3S,6S,10aS)-3-(methyl((2-oxo-1,2-dihydroquinolin-4-yl)methyl)carbamoyl)-5-oxodecahydropyrrolo [1,2-a]azocin-6-yl)carbamoyl)benzo [b]thiophen-5-yl)methyl) phosphonic acid] are 100 to 1000 nM and 0.3 to 3 µM.
On the same counts, the results for `COC1(c2nncn2C)CN(C(=O)[C@@H]2CC[C@@H]3CCC[C@H](NC(=O)c4cc5cc(C(F)(F)P(=O)(O)O)ccc5s4)C(=O)N32)C1` [Compound 796, (difluoro(2-(((3S,6S,9aS)-3-(3-methoxy-3-(4-methyl-4H-1,2,4-triazol-3-yl)azetidine-1-carbonyl)-5-oxooctahydro-1H-pyrrolo[1,2-a]azepin-6-yl)carbamoyl)benzo [b]thiophen-5-yl)methyl) phosphonic acid] are 100 to 1000 nM and 3 to 30 µM.
On the same counts, the results for `O=C(N[C@H]1CCC[C@H]2CC[C@@H](C(=O)N3CC(c4cnccn4)C3)N2C1=O)c1cc2cc(C(F)(F)P(=O)(O)O)ccc2s1` [Compound 797, (difluoro(2-(((3S,6S,9aS)-5-oxo-3-(3-(pyrazin-2-yl)azetidine-1-carbonyl)octahydro-1H-pyrrolo[1,2-a]azepin-6-yl)carbamoyl)benzo [b]thiophen-5-yl)methyl) phosphonic acid] are 100 to 1000 nM and 3 to 30 µM.
Turning to `Cn1ccnc1C1CN(C(=O)[C@@H]2CC[C@@H]3CCC[C@H](NC(=O)c4cc5cc(C(F)(F)P(=O)(O)O)ccc5s4)C(=O)N32)C1` [Compound 799, (difluoro(2-(((3S,6S,9aS)-3-(3-(1-methyl-1H-imidazol-2-yl)azetidine-1-carbonyl)-5-oxooctahydro-1H-pyrrolo[1,2-a]azepin-6-yl)carbamoyl)benzo [b]thiophen-5-yl)methyl) phosphonic acid], the concentration for half-maximal inhibition (IC50) is < 100 nM in assay [1] and 0.3 to 3 µM in assay [2].
`CN(Cc1cc[nH]c(=O)c1)C(=O)[C@@H]1CC[C@@H]2CCCC[C@H](NC(=O)c3cc4cc(C(F)(F)P(=O)(O)O)ccc4s3)C(=O)N21` [Compound 800, (difluoro(2-(((3S,6S,10aS)-3-(methyl((2-oxo-1,2-dihydropyridin-4-yl)methyl)carbamoyl)-5-oxodecahydropyrrolo [1,2-a]azocin-6-yl)carbamoyl)benzo [b]thiophen-5-yl)methyl) phosphonic acid]: the IC50 in assay [1] was 1000 to 10000 nM; in assay [2], 0.3 to 3 µM.
The corresponding values for `O=C(N[C@H]1CCCC[C@H]2CC[C@@H](C(=O)N3Cc4cccnc4C3)N2C1=O)c1cc2cc(C(F)(F)P(=O)(O)O)ccc2s1` [Compound 801, ((2-(((3S,6S,10aS)-3-(6,7-dihydro-5H-pyrrolo[3,4-b]pyridine-6-carbonyl)-5-oxodecahydropyrrolo [1,2-a]azocin-6-yl)carbamoyl)benzo [b]thiophen-5-yl)difluoromethyl) phosphonic acid] are 100 to 1000 nM and 3 to 30 µM.
The corresponding values for `O=C(N[C@H]1CCCC[C@H]2CC[C@@H](C(=O)N3CCc4[nH]ncc4C3)N2C1=O)c1cc2cc(C(F)(F)P(=O)(O)O)ccc2s1` [Compound 802, (difluoro(2-(((3S,6S,10aS)-5-oxo-3-(4,5,6,7-tetrahydro-1H-pyrazolo[4,3-c]pyridine-5-carbonyl)decahydropyrrolo[1,2-a]azocin-6-yl)carbamoyl)benzo [b]thiophen-5-yl)methyl) phosphonic acid] are 1000 to 10000 nM and 0.3 to 3 µM.
The corresponding values for `O=C(N[C@H]1CCCC[C@H]2CC[C@@H](C(=O)N3CC(c4ccc[nH]c4=O)C3)N2C1=O)c1cc2cc(C(F)(F)P(=O)(O)O)ccc2s1` [Compound 803, (difluoro(2-(((3S,6S,10aS)-5-oxo-3-(3-(2-oxo-1,2-dihydropyridin-3-yl)azetidine-1-carbonyl)decahydropyrrolo[1,2-a]azocin-6-yl)carbamoyl)benzo [b]thiophen-5-yl)methyl) phosphonic acid] are < 100 nM and 0.3 to 3 µM.
`N#Cc1cnc(C2CN(C(=O)[C@@H]3CC[C@@H]4CCCC[C@H](NC(=O)c5cc6cc(C(F)(F)P(=O)(O)O)ccc6s5)C(=O)N43)C2)nc1` [Compound 806, ((2-(((3S,6S,10aS)-3-(3-(5-cyanopyrimidin-2-yl)azetidine-1-carbonyl)-5-oxodecahydropyrrolo [1,2-a]azocin-6-yl)carbamoyl)benzo [b]thiophen-5-yl)difluoromethyl) phosphonic acid]: the concentration for half-maximal inhibition (IC50) in assay [1] is < 100 nM; in assay [2] it was 3 to 30 µM.
The corresponding values for `Cn1cnnc1C1(O)CN(C(=O)[C@@H]2CC[C@@H]3CCC[C@H](NC(=O)c4cc5cc(C(F)(F)P(=O)(O)O)ccc5s4)C(=O)N32)C1` [Compound 807, (difluoro(2-(((3S,6S,9aS)-3-(3-hydroxy-3-(4-methyl-4H-1,2,4-triazol-3-yl)azetidine-1-carbonyl)-5-oxooctahydro-1H-pyrrolo[1,2-a]azepin-6-yl)carbamoyl)benzo [b]thiophen-5-yl)methyl) phosphonic acid] are 100 to 1000 nM and 0.3 to 3 µM.
The corresponding values for `CCOC1(c2nncn2C)CN(C(=O)[C@@H]2CC[C@@H]3CCC[C@H](NC(=O)c4cc5cc(C(F)(F)P(=O)(O)O)ccc5s4)C(=O)N32)C1` [Compound 808, ((2-(((3S,6S,9aS)-3-(3-ethoxy-3-(4-methyl-4H-1,2,4-triazol-3-yl)azetidine-1-carbonyl)-5-oxooctahydro-1H-pyrrolo[1,2-a]azepin-6-yl)carbamoyl)benzo [b]thiophen-5-yl)difluoromethyl) phosphonic acid] are 100 to 1000 nM and 3 to 30 µM.
The corresponding values for `O=C(N[C@H]1CCC[C@H]2CC[C@@H](C(=O)N3CC(c4nccc(O)n4)C3)N2C1=O)c1cc2cc(C(F)(F)P(=O)(O)O)ccc2s1` [Compound 809, (difluoro(2-(((3S,6S,9aS)-3-(3-(4-hydroxypyrimidin-2-yl)azetidine-1-carbonyl)-5-oxooctahydro-1H-pyrrolo[1,2-a]azepin-6-yl)carbamoyl)benzo [b]thiophen-5-yl)methyl) phosphonic acid] are < 100 nM and 3 to 30 µM.
Take `N#Cc1cccc(C2CN(C(=O)[C@@H]3CC[C@@H]4CCC[C@H](NC(=O)c5cc6cc(C(F)(F)P(=O)(O)O)ccc6s5)C(=O)N43)C2)n1` [Compound 811, ((2-(((3S,6S,9aS)-3-(3-(6-cyanopyridin-2-yl)azetidine-1-carbonyl)-5-oxooctahydro-1H-pyrrolo[1,2-a]azepin-6-yl)carbamoyl)benzo [b]thiophen-5-yl)difluoromethyl) phosphonic acid]: the IC50 was < 100 nM in assay [1] and 0.3 to 3 µM in assay [2].
On the same counts, the results for `O=C(N[C@H]1CCC[C@H]2CC[C@@H](C(=O)N3CC(c4nccc(C(F)(F)F)n4)C3)N2C1=O)c1cc2cc(C(F)(F)P(=O)(O)O)ccc2s1` [Compound 812, (difluoro(2-(((3S,6S,9aS)-5-oxo-3-(3-(4-(trifluoromethyl)pyrimidin-2-yl)azetidine-1-carbonyl)octahydro-1H-pyrrolo[1,2-a]azepin-6-yl)carbamoyl)benzo [b]thiophen-5-yl)methyl) phosphonic acid] are 100 to 1000 nM and 3 to 30 µM.
